Experimental data: the NIST ThermoML archive (doi:10.1016/j.jct.2019.01.025)

What was measured:
[1] = 101.33 kPa, Liquid, Vibrating tube method
[2] = xn = mol fraction of the nth substance listed; settings: 100 kPa, Liquid, Vibrating tube method

NCCO [2-aminoethan-1-ol]
[1]
Settings | mass density [kg/m3]
293.15 K | 1016.47
298.15 K | 1012.53
303.15 K | 1008.47
308.15 K | 1004.49
313.15 K | 1000.5
318.15 K | 996.39
323.15 K | 992.41

NCCO [2-aminoethan-1-ol] + CCO
mass density [kg/m3], [2]
Settings | x1 = 0.0773 | x1 = 0.1586 | x1 = 0.2443 | x1 = 0.3346 | x1 = 0.43 | x1 = 0.5308 | x1 = 0.6377 | x1 = 0.7511 | x1 = 0.8716 | x1 = 1
293.15 K | 810.46 | 831.93 | 853.39 | 876.12 | 899.09 | 921.99 | 945.08 | 968.64 | 992.58 | 1016.47
298.15 K | 806.22 | 827.71 | 849.2 | 871.96 | 894.95 | 917.9 | 941.02 | 964.62 | 988.58 | 1012.53
303.15 K | 801.86 | 823.37 | 844.9 | 867.69 | 890.7 | 913.65 | 936.83 | 960.48 | 984.46 | 1008.47
308.15 K | 797.55 | 819.07 | 840.65 | 863.47 | 886.5 | 909.55 | 932.73 | 956.42 | 980.42 | 1004.49
313.15 K | 793.21 | 814.75 | 836.38 | 859.23 | 882.29 | 905.4 | 928.6 | 952.34 | 976.38 | 1000.5
318.15 K | 788.71 | 810.29 | 831.96 | 854.85 | 877.94 | 901.1 | 924.34 | 948.13 | 972.21 | 996.39
323.15 K | 784.27 | 805.9 | 827.62 | 850.55 | 873.69 | 896.9 | 920.19 | 944.04 | 968.17 | 992.41

CC(C)CO [2-methyl-1-propanol]
[1]
Settings | mass density [kg/m3]
293.15 K | 801.85
298.15 K | 797.99
303.15 K | 794.03
308.15 K | 790.09
313.15 K | 786.12
318.15 K | 781.97
323.15 K | 777.86

CC(C)CO [2-methyl-1-propanol] + NCCO
[2], x2 = 0
Settings | mass density [kg/m3]
293.15 K | 801.85
298.15 K | 797.99
303.15 K | 794.03
308.15 K | 790.09
313.15 K | 786.12
318.15 K | 781.97
323.15 K | 777.86

CC(C)(C)O [2-methylpropan-2-ol]
[1]
Settings | mass density [kg/m3]
298.15 K | 780.61
303.15 K | 775.42
308.15 K | 770.21
313.15 K | 764.92
318.15 K | 759.42
323.15 K | 753.95

CC(C)(C)O [2-methylpropan-2-ol] + NCCO
[2], x2 = 0
Settings | mass density [kg/m3]
298.15 K | 780.61
303.15 K | 775.42
308.15 K | 770.21
313.15 K | 764.92
318.15 K | 759.42
323.15 K | 753.95

CCCCO [butan-1-ol] + NCCO
[2], x2 = 0
Settings | mass density [kg/m3]
293.15 K | 809.77
298.15 K | 805.92
303.15 K | 802
308.15 K | 798.14
313.15 K | 794.24
318.15 K | 790.2
323.15 K | 786.21

CCO [ethanol] + NCCO
[2], x2 = 0
Settings | mass density [kg/m3]
293.15 K | 789.4
298.15 K | 785.13
303.15 K | 780.75
308.15 K | 776.41
313.15 K | 772.04
318.15 K | 767.52
323.15 K | 763.04

CCCO [propan-1-ol] + NCCO
[2], x2 = 0
Settings | mass density [kg/m3]
293.15 K | 803.77
298.15 K | 799.69
303.15 K | 795.58
308.15 K | 791.52
313.15 K | 787.42
318.15 K | 783.17
323.15 K | 778.96

CC(C)O [propan-2-ol] + NCCO
[2], x2 = 0
Settings | mass density [kg/m3]
293.15 K | 785.1
298.15 K | 780.91
303.15 K | 776.57
308.15 K | 772.24
313.15 K | 767.82
318.15 K | 763.19
323.15 K | 758.55
